Experimental data as given in PubChem BioAssay AID588610 (The Scripps Research Institute Molecular Screening Center, 2011).

Biological target: Epidermal growth factor receptor (Homo sapiens) (UniProt P00533)
Assay: altered EGFR protein amount in cells – DLD1 cells, chemiluminescent western blot, counter-screen for KLF5 inhibitor project, late-stage follow-up (AID 588610)
Details: DLD-1 cells, 24 h, at 10 µM; for inhibition of EGFR protein level: stronger effect = higher value; for fold change: measured here: EGFR band fold change vs DMSO

| Structure (SMILES) | inhibition of EGFR protein level [%] | fold change |
| --- | --- | --- |
| CN(C(=O)CNC(=O)/C=C/c1cccc(Cl)c1)C1CCS(=O)(=O)CC1 | -478 | 5.13 |
| CN(C(=O)COC(=O)/C=C/c1cccc([N+](=O)[O-])c1)C1CCS(=O)(=O)C1 (stereo not given) | -314 | 3.54 |
| CN(C(=O)CNC(=O)/C=C/c1cccc(Cl)c1)C1CCS(=O)(=O)C1 (stereo not given) |  | 5.24 |
